Numbers after ± are expanded uncertainties.
Settings: Drop volume

CCCCCC [hexane]
Settings	surface tension liquid-gas [mN/m]
283.15 K	19.63 ± 0.25
288.15 K	19.04 ± 0.24
293.15 K	18.52 ± 0.24
298.15 K	18.06 ± 0.23
303.15 K	17.53 ± 0.23
308.15 K	16.74 ± 0.22
313.15 K	16.47 ± 0.22
